Laboratory results published in patent US20040077616A1, “Spirocyclopropyl amides and acids and their therapeutic applications” (priority 2002, published 2004).

Tests used:
[1] = tested on: CD-1 mice; assay: Maximal Electroshock Procedure; format: in vivo; conditions: Mus musculus, po, p.o. 30 minutes prior to electrical stimulation, PROBIT analysis, read-out: ED50 (dose at which 50% of the mice were protected from tonic seizures)
Description: (§1) Adult, male, CD-1 mice (22-25 grams) were obtained from Charles River Laboratories (Portage, Mich.) and housed at Abbott Laboratories (Abbott Park) under standard lighting conditions of 12 hours on/12 hours off, with lights on at 6 a.m. Food and water were provided ad libitum and mice weighed 25-35 grams at the time of testing.
(§2) Compounds were prepared for oral administration by suspending them in a vehicle of 100 μL Tween® 80 per mL hydroxypropyl methylcellulose (2 mg/mL, Abbott Laboratories). Compound solutions were administered at a volume of 10 mL/kg, p.o.
The method used was similar to that of E. A. Swinyard, General principles: Experimental selection, quantification and evaluation of anti-convulsants, Anti-epileptic Drugs, Third Edition, R. Levey, et al., Editors. 1989, Raven Press Ltd: New York. Mice were pretreated orally with compounds of the present invention 30 minutes prior to electrical stimulation. Electrical stimulation consisted of pulsed electrical current (50 mA, 0.4 second duration, pulse width 0.5 msec, 60 pulses/sec) applied via corneal electrodes to induce seizure. The stimulation was delivered with an ECT Unit (Ugo Basile #7801). […] The percent protection from tonic seizures was calculated by dividing the number of protected mice by the total number in the group. […]

[2] = tested on: CD-1 mice; assay: Subcutaneous Pentylenetetrazole (PTZ) Seizure Procedure; format: in vivo; conditions: Mus musculus; PTZ 85 mg/kg s.c., compound p.o. 30 minutes prior to PTZ injection, linear regression; read-out: ED50 (dose at which 50% of the mice were protected from tonic seizures)
Description: as §1, §2
The method used was similar to that of E. A. Swinyard, General principles: Experimental selection, quantification and evaluation of anti-convulsants, Anti-epileptic Drugs, Third Edition, R. Levey, et al., Editors. 1989, Raven Press Ltd: New York. During the experiment the mice were housed individually in clear polycarbonate cages for observation. […] Seizures were induced by the subcutaneous injection of pentylenetetrazole (PTZ, 85 mg/kg) just below the nape of the neck. […] A total of 20 mice were used in each group. The ED50for the compounds were calculated using linear regression and represent the dose at which 50% of the mice were protected from tonic seizures.

**Q.** Which results are given for `CCCC(CCC)C(=O)O` [Valproate]?
**A.** ED50 [1]: 1200 µmol/kg; ED50 [2]: 1800 µmol/kg
